Laboratory results taken from ChEMBL document CHEMBL1649457, “Antibiotic susceptibility of Waddlia chondrophila in Acanthamoeba castellanii amoebae” (2009).
≈ marks a conversion by molar mass, not a printed value.

How the values were obtained:
[1] = tested on: Parachlamydia acanthamoebae; assay: Antimicrobial activity against Parachlamydia acanthamoebae infected in Acanthamoeba castellanii amoeba cells; type: functional
[2] = Antimicrobial activity against Waddlia chondrophila ATCC VR-1470 infected in Vero cells; type: functional, Waddlia chondrophila WSU 86-1044
[3] = Antimicrobial activity against Waddlia chondrophila ATCC VR-1470 infected in Acanthamoeba castellanii amoeba cells; type: functional, Waddlia chondrophila WSU 86-1044
[4] = tested on: Chlamydia pneumoniae; assay: Antimicrobial activity against Chlamydophila pneumoniae infected in Vero cells; type: functional
[5] = Antimicrobial activity against Waddlia chondrophila 2032/99 infected in Acanthamoeba castellanii amoeba cells; type: functional
[6] = tested on: Chlamydia trachomatis; assay: Antimicrobial activity against Chlamydia trachomatis infected in Vero cells; type: functional
[7] = tested on: Chlamydophila psittaci; assay: Antimicrobial activity against Chlamydophila psittaci infected in Vero cells; type: functional; conditions: Chlamydia psittaci

Row | SMILES | MIC [1] [µg/mL] | MIC [2] [µg/mL] | MIC [3] [µg/mL] | MIC [4] [µg/mL] | MIC [5] [µg/mL] | MIC [6] [µg/mL] | MIC [7] [µg/mL]
1 | CC1(C)S[C@@H]2[C@H](NC(=O)[C@H](N)c3ccc(O)cc3)C(=O)N2[C@H]1C(=O)O [AMOXICILLIN] | > 32 | – | – | – | – | – | –
2 | CC1(C)S[C@@H]2[C@H](NC(=O)[C@H](N)c3ccccc3)C(=O)N2[C@H]1C(=O)O [AMPICILLIN] | – | > 32 | > 32 | > 100 | – | – | –
3 | CC[C@H]1OC(=O)[C@H](C)[C@@H](O[C@H]2C[C@@](C)(OC)[C@@H](O)[C@H](C)O2)[C@H](C)[C@@H](O[C@@H]2O[C@H](C)C[C@H](N(C)C)[C@H]2O)[C@](C)(O)C[C@@H](C)CN(C)[C@H](C)[C@@H](O)[C@]1(C)O [AZITHROMYCIN] | – | 0.25 (≈ 0.334 µM) | 0.06 (≈ 0.0801 µM) | 0.06 (≈ 0.0801 µM) | 0.06 (≈ 0.0801 µM) | 0.125 (≈ 0.167 µM) | 0.125 (≈ 0.167 µM)
4 | CO/N=C(\C(=O)N[C@@H]1C(=O)N2C(C(=O)O)=C(CSc3nc(=O)c(O)nn3C)CS[C@H]12)c1csc(N)n1 [CEFTRIAXONE] | > 32 | > 32 | > 32 | – | – | > 32 | –
5 | O=C(O)c1cn(C2CC2)c2cc(N3CCNCC3)c(F)cc2c1=O [CIPROFLOXACIN] | > 16 | > 16 | > 16 | 1 (≈ 3.02 µM) | – | 0.5 (≈ 1.51 µM) | 1 (≈ 3.02 µM)
6 | C[C@H]1c2cccc(O)c2C(=O)C2=C(O)[C@]3(O)C(=O)C(C(N)=O)=C(O)[C@@H](N(C)C)[C@@H]3[C@@H](O)[C@@H]21.O [DOXYCYCLINE] | 0.5 | 0.25 | 4 | 0.03 | 1 | 0.03 | 0.03
7 | CC1COc2c(N3CCN(C)CC3)c(F)cc3c(=O)c(C(=O)O)cn1c23 (stereo not drawn) [OFLOXACIN] | > 16 | > 16 | > 16 | 0.5 (≈ 1.38 µM) | – | 0.5 (≈ 1.38 µM) | 0.5 (≈ 1.38 µM)
